Columns and labels:
Assay type in all cases: cell-based, human
p53 [1] = experiment: p53 ELISA in SiHa cells; settings: with 4 μg/ml mitomycin C, 24 h
Experimental: (§1) Figure 6 Treatment with myricetin and spinacine (5) increases cellular levels of caspase 8 and p53. (a) SiHa cells (1 × 10^6 per well) were seeded into a six-well plate and allowed to incubate overnight. The indicated concentrations of myricetin and spinacine were added, and then cells were incubated for 24 h. Cells were then washed in 1 × PBS and then harvested, and the resulting level of caspase 8 was measured by immunoblot. (b) SiHa and C33A cells (1 × 10^6 per well) were seeded into a six-well plate and allowed to incubate overnight. In all, 200 μM of myricetin and 100 μM spinacine were added together with 4 μg/ml mitomycin C and incubated for 24 h. The resulting level of p53 was measured by enzyme-linked immunosorbent assay, and the level of p53 found in untreated cells was set at 100%. Experiments were performed in triplicate, and error bars indicate the S.D.
(§2) The p53 ELISA was performed as described previously,[26] with some modifications. Antibodies secreted by clone pAb122 (hybridoma obtained from ATCC, antibodies purified from the culture medium using protein-A Sepharose) were used as monoclonal capture antibodies. […] The average and S.D. of the replicates (a minimum of three) were calculated, normalized to the control, and used to prepare the graph.

p53 [2] = experiment: p53 ELISA in C33A cells; settings: C33A cells (HPV−, mutant p53), with 4 μg/ml mitomycin C, 24 h
Experimental: as §1, §2

UMSCC47 = experiment: TRAIL-induced cell death in HPV+ HNSCC line UMSCC47 (MTT); settings: HPV+ #47, 40 μM compound 4 h, 50 ng/ml TRAIL + cycloheximide
Experimental: (§3) Figure 7 Myricetin and spinacine (5) can re-sensitize HPV^+, but not HPV^−, head and neck cancer cell lines to treatment with TRAIL. (a) Both HPV^− and HPV^+ HN cancer cell lines display resistance to TRAIL treatment. (b) HPV^− (UMSCC 29 and SCC 84) and (c) HPV^+ (UMSCC 47, UPCI-SCC90-UP-Clone 35, and UM-SCC47-TC-Clone 3) head and neck cancer cell lines (2 × 10^4 cells per well) were seeded into 96-well plates and allowed to incubate overnight, and then cells were pretreated with myricetin (0–200 μM) or spinacine (0–100 μM) for 4 h. […] Cell viability was measured by the MTT assay, and the viability of cells untreated with small molecules was set at 100%. Experiments were performed in triplicate, and error bars indicate the S.D.
(§4) The extracellular domain of human TRAIL was cloned into a pTriEx expression plasmid containing N-terminal Hisx6 tag. His-TRAIL was expressed in the E. coli BL-21 pLys strain and purified as previously described. Doxorubicin and cisplatin were purchased from Sigma. His-TRAIL, doxorubicin, and cisplatin were diluted in PBS to the desired concentration before using. […] All experiments were repeated at least three times (three biological replicates, carried out on different days), with each experimental group measured in triplicate within each of these individual experiments. […]

SCC84 = experiment: TRAIL-induced cell death in HPV− HNSCC line SCC84 (MTT); settings: HPV− #84, myricetin 0–200 μM or spinacine 0–100 μM, 50 ng/ml TRAIL
Experimental: as §3, §4

SiHa cells = experiment: Sensitization of SiHa cells to doxorubicin (MTT); settings: 100 μM myricetin or 50 μM spinacine 4 h prior to doxorubicin, versus negative control
Experimental: Figure 3 (a) HPV^+ SiHa cells are resistant to TRAIL-induced apoptosis as compared with the human osteosarcoma cell line U2OS. Cells (2 × 10^4 cells per well) were seeded into a 96-well plate, allowed to incubate overnight, and then treated with the indicated concentration of TRAIL in the presence of cycloheximide (5 μg/ml). The viability of cells was measured after overnight incubation using the MTT assay; the viability of cells untreated with TRAIL was set at 100% for each group. (b) The indicated concentrations of three small molecules were added to SiHa cells, and an MTT assay was preformed after overnight incubation. The viability of cells untreated with small molecules was set as 100%. (c) The indicated concentrations of myricetin or spinacine were added 4 h prior to TRAIL (100 ng/ml) in the presence of cycloheximide (5 μg/ml) and incubated at 37 °C overnight. […] Cell viability was measured after overnight incubation using the MTT assay, and the viability of cells untreated with either myricetin or spinacine was set at 100%. […]
The extracellular domain of human TRAIL was cloned into a pTriEx expression plasmid containing N-terminal Hisx6 tag. […] All experiments were repeated at least three times (three biological replicates, carried out on different days), with each experimental group measured in triplicate within each of these individual experiments. […]

SMILES | increase in p53 compared with untreated cells (p53 [1]; 200 μM) [fold] | change in p53 levels (p53 [2]; 200 μM) | enhancement of TRAIL-induced cell death (UMSCC47) | response to TRAIL in presence and absence of compound (SCC84) | sensitivity of SiHa cells to doxorubicin (SiHa cells) | increase in p53 compared with untreated cells (p53 [1]; 100 μM) [fold] | change in p53 levels (p53 [2]; 100 μM)
O=c1c(O)c(-c2cc(O)c(O)c(O)c2)oc2cc(O)cc(O)c12 [Myricetin, myricetin, reference compound] | 4.4 | no significant change | 40% | resistant | increased the sensitivity |  | 
O=C(O)C1Cc2[nH]cnc2CN1 (stereo not shown) [Spinacine (5), 4,5,6,7-tetrahydro-1H-imidazo[4,5–c]pyridine-6-carboxylic acid] |  |  | up to 50% | resistant | increased the sensitivity | 3.4 | no significant change

From publication PMC5154303, “Flavonol and imidazole derivatives block HPV16 E6 activities and reactivate apoptotic pathways in HPV^+ cells” (Cell Death & Disease, 2016)
